Key:
Procathepsin L = Procathepsin L (Homo sapiens, UniProt P07711); test: (§1) Enzyme Inhibition Assay: Enzyme activity is measured by observing the increase in fluorescence intensity caused by cleavage of a peptide substrate containing a fluorophore whose emission is quenched in the intact peptide.Assay buffer: 100 mM potassium phosphate pH 6.5, EDTA-Na 5 mM, Triton X-100 0.001%, DTT 5 mM.Enzymes (all at 1 nM): human and mouse Cathepsin S, Cat K, Cat B, Cat L.Substrate (20 μM): Z-Val-Val-Arg-AMC, except for Cat K which uses Z-Leu-Arg-AMC (both from Bachem).Z=Benzyloxycarbonyl.AMC=7-Amino-4-Methyl-Coumarin.DTT=dithiothreitol.Final volume: 100 μL.Excitation 360 nm, Emission 465 nm.Enzyme is added to the substance dilutions in 96-well microtitre plates and the reaction is started with substrate. Fluorescence emission is measured over 20 minutes, during which time a linear increase is observed in the absence of inhibitor.
Cathepsin S = Cathepsin S (Homo sapiens, UniProt P25774); test: as §1
Sequence of Cathepsin S (P25774 whole entry): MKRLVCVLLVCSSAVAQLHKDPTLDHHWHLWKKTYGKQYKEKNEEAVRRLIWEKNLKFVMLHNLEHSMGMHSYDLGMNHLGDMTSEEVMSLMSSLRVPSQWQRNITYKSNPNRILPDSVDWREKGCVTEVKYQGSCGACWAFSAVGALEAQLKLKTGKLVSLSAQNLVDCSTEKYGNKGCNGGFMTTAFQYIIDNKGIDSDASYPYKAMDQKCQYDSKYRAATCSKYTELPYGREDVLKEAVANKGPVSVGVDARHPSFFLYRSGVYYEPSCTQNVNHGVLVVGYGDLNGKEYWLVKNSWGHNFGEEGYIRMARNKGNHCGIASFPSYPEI

Sequence of Procathepsin L (P07711 whole entry): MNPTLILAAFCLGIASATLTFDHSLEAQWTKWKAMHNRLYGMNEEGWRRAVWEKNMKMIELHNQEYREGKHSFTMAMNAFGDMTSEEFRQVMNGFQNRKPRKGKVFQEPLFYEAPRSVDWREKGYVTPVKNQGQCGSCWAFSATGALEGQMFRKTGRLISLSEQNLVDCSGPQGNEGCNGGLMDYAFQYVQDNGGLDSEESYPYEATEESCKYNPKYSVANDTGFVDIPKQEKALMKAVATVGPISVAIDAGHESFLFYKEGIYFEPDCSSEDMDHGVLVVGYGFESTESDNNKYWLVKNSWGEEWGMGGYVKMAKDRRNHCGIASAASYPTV

Row | Structure (SMILES) | IC50 (Procathepsin L) | IC50 (Cathepsin S)
1 | Cc1cc(-c2ccc(S(=O)(=O)[C@@H]3C[C@@H](C(=O)NC4(C#N)CC4)N(C(=O)C4(c5ncc(Cl)cc5F)CCN4C(=O)OC(C)(C)C)C3)c(Cl)c2)ccn1 (stereo partly drawn) | 523 nM | 1.55 nM
2 | C[C@H](Oc1ccc(S(=O)(=O)[C@@H]2C[C@@H](C(=O)NC3(C#N)CC3)N(C(=O)C3(c4ncc(Br)cc4F)CCN3C(=O)OC(C)(C)C)C2)c(Cl)c1)C(F)(F)F (stereo partly drawn) | 188 nM | 5.5 nM
3 | Cn1cc(-c2ccc(S(=O)(=O)[C@@H]3C[C@@H](C(=O)NC4(C#N)CC4)N(C(=O)C4(c5ncc(Br)cc5F)CCN4C(=O)OC(C)(C)C)C3)c(Cl)c2)cn1 (stereo partly drawn) | 1160 nM | 1.12 nM
4 | C[C@H](Oc1ccc(S(=O)(=O)[C@@H]2C[C@@H](C(=O)NC3(C#N)CC3)N(C(=O)C3(c4ncc(Br)cc4F)CN(C)C3)C2)c(Cl)c1)C(F)(F)F | 16.6 nM | 2.13 nM

Reference: ChEMBL document CHEMBL3638976, “Azetidine derivatives” (2014)
